Measured values reported in patent publication US4362718A, “Agent for curing peripheral circulation insufficiency” (Yamanouchi Pharmaceutical Co., Ltd., priority 1979, dated 1982).
Like-named read-outs stand apart in the source and are kept apart here.

Experiments:
red blood corpuscles [1] = system: red blood corpuscles
Procedure: (§1) (1) One part by volume of human blood was mixed with 1 part by volume of a preservative solution (acid-citrate-dextrose solution) and preserved at 4° C. Just before using, it was washed 4 times with about 8 times by volume of a saline solution (2,000 rotations/minute, for 3 minutes) and a 2% saline floating solution of red blood corpuscles was prepared.
(§2) (2) A solution prepared by dissolving α1 -acid glycoprotein or a comparative substance shown in FIG. 1 in a saline solution was mixed with the same amount of the saline floating solution of red blood corpuscles, and the mixture was moderately shaked for 30 minutes at 37° C. 1 ml of the mixture was taken out and filtered by means of a nitrocellulose membrane filter (produced by Saltrius Co., diameter: 13 mm, diameter of fine openings: 3.0 μm) at 37° C. with pressing under 80 mmHg/cm^2. 0.5 ml of the filtrate was taken out and subjected to light centrifugal separation (1,500 rotations/minute, for 2 minutes). To the precipitate was added 5 ml of deionized water to cause hemolysis at a low tonicity, and a ratio of red blood corpuscles passing through the filter was calculated from the absorbance (420 nm) thereof. Further, percent hemolysis caused during the operation was calculated from the absorbance of the supernatant fluid of the filtrate.

red blood corpuscles [2] = experiment: Fine opening passability of red blood corpuscles (nitrocellulose membrane filter, 3.0 μm); assay type: cell-based, human; settings: 37° C., 30 minutes, 3.0 μm filter, 80 mmHg/cm^2
Procedure: as §1, §2

[3] = system: red blood corpuscles through fine blood vessels; experiment: Passability of red blood corpuscles through vital fine blood vessels (exposed rabbit mesentery, reduced blood pressure); assay type: in vivo
Source text: A rabbit was subjected to laparotomy under urethane anesthesia to expose the mesentery and the passability of the red blood corpuscles through fine blood vessels was observed by means of a stereomicroscope.

[4] = system: EB virus transform lymphoblast P3HR-1; experiment: Toxicity to cultivated cells, P3HR-1; assay type: cell-based
[5] = system: Human fetal lung fiber cell; experiment: Toxicity to cultivated cells, human fetal lung fiber cell; assay type: cell-based
Rat = experiment: Acute toxicity, rat; assay type: in vivo
Mouse = experiment: Acute toxicity, mouse; assay type: in vivo
HeLaS3 = experiment: Toxicity to cultivated cells, HeLaS3; assay type: cell-based
[6] = 100 μg-1 mg/kg, arterial blood pressure 40-60 mmHg/cm^2

| Substance | percent hemolysis in case of passing through fine openings (red blood corpuscles [1]; human, red blood cells) | passage of red blood corpuscles through the filter (red blood corpuscles [2]; 0.1% solution, compared with α1 -acid glycoprotein) | stagnation of the blood flow and stopping of the blood corpuscles ([3]; in case of using dextran sulfate, reduced blood pressure) | Toxicity (50% Inhibition of propagation) [4] | Toxicity (50% Inhibition of propagation) [5] | percent hemolysis in case of passing through fine openings (red blood corpuscles [1]; 0.05% solution, saline alone as high as 20%) | LD50 (Rat; intraperitoneally) | LD50 (Rat; intravenously) | LD50 (Rat; subcutaneously) | passage of red blood corpuscles through the filter (red blood corpuscles [2]; 0.05% solution, saline control did not pass at all) | LD50 (Mouse; intraperitoneally) | LD50 (Mouse; intravenously) | LD50 (Mouse; subcutaneously) | Toxicity (50% Inhibition of propagation) (HeLaS3) | impilation of corpuscles and separation of the corpuscle component from the serum [3, 6] | movement of red blood corpuscles [3, 6] | passability of red blood corpuscles through fine blood vessels under reduced blood pressure ([3]; continuously into local dominating artery or into a vein, 100 μg-1 mg/kg, blood pressure reduced by blood-letting or pentobarbital) |
| --- | --- | --- | --- | --- | --- | --- | --- | --- | --- | --- | --- | --- | --- | --- | --- | --- | --- |
| dextran sulfate [reference compound] | 25 to 30% | passage of the red blood corpuscles was observed too, but the effect was small as compared with the case of α1 -acid glycoprotein | such stagnation of the blood flow and stopping of the blood corpuscles were not observed |  |  |  |  |  |  |  |  |  |  |  |  |  |  |
| α1 -acid glycoprotein: active ingredient of the present invention; substance known already, produced by the process described in Unexamined patent publication Sho 53-37187 |  |  |  | > 100 µg/mL | > 100 µg/mL | 5% | > 1,000 mg/kg | > 1,000 mg/kg | > 1,000 mg/kg | the red blood corpuscles passed through the filter with hardly causing hemolysis | > 1,000 mg/kg | > 1,000 mg/kg | > 1,000 mg/kg | > 100 µg/mL | impilation of corpuscles and separation of the corpuscle component from the serum were not observed | the red blood corpuscles moved in the normal direction though the movement was slow | the passability of red blood corpuscles was good |
